Assay: recombinant UMI read abundance after kanamycin selection (control-corrected) (log10(CPM+1)); higher = more efficient recombination; extreme values may be limits of the assay; sequences stand for … in AGTGCAGAGAAAATCGGCCAGTTTTCTCTGCCTGCAGTCCGCATGCCGTGGGACCCCTTGGGTTCTAACCTGTTGCCTAGATTTATGCAGCGGACTGCCTTTCTCCCAAAGTGATAAACCGG…AGGTTGGTTTCACT; site = the 11-nt donor
Method: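 Pooled E. coli donor-specificity screen for the IS621 bridge recombinase. Each library member carries a reprogrammed 11-nt donor and a full-length LE bridge RNA expressed in cis from the natural promoter, with a paired donor-binding loop (8-nt LDG + 4-nt RDG) and a target-binding loop fixed to T5. It is co-electroporated with a T5 target plasmid; recombinase is induced with 0.07 mM IPTG and recombinants are selected on kanamycin. UMIs are counted as CPM, averaged over two biological replicates and corrected by the unselected control. Molecule = full bridge RNA written as DNA, built from the T5 scaffold: LDG = donor specificity nt 1-8, RDG = reverse complement of nt 8-11.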
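Further: IS621 bridge recombinase in Escherichia coli cells against a fixed T5 target plasmid.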

Row | Sequence | recombinant UMI read abundance (log10)
1 | AACTAGCCATGGACCGGTTTTCCCGGTAATCCGTATTTGCG (site AACTAGCCTCG) | 0.00356
2 | AACTATACATGGACCGGTTTTCCCGGTAATCCGTATTTGAC (site AACTATACTGT) | 2.31
3 | AACTATACATGGACCGGTTTTCCCGGTAATCCGTATTTGAC (site ACCTATACTGT) | 0.367
4 | AACTATACATGGACCGGTTTTCCCGGTAATCCGTATTTGAC (site AGCTATACTGT) | 0.797
5 | AACTATACATGGACCGGTTTTCCCGGTAATCCGTATTTGAC (site ATCTATACTGT) | 1.94
6 | AACTATGCATGGACCGGTTTTCCCGGTAATCCGTATTTGGA (site AAATATGCTTC) | 0.502
7 | AACTATGCATGGACCGGTTTTCCCGGTAATCCGTATTTGGA (site AACTATGCTTC) | 1.22
8 | AACTATGCATGGACCGGTTTTCCCGGTAATCCGTATTTGGA (site AAGTATGCTTC) | 0.552
9 | AACTATGCATGGACCGGTTTTCCCGGTAATCCGTATTTGGA (site AATTATGCTTC) | 0.908
10 | AACTATTCATGGACCGGTTTTCCCGGTAATCCGTATTTGCG (site AACTATTCTCG) | 2.02
11 | AACTGGACATGGACCGGTTTTCCCGGTAATCCGTATTTGGG (site AACTGGACTCC) | 0.0254
12 | AACTTGACATGGACCGGTTTTCCCGGTAATCCGTATTTGAC (site AACTTGACTGT) | 0
13 | AACTTGTCATGGACCGGTTTTCCCGGTAATCCGTATTTGGC (site AACTTGTCTGC) | 0
14 | AAGAACACATGGACCGGTTTTCCCGGTAATCCGTATTTGCA (site AAGAACACTTG) | 2.85
15 | AAGAACACATGGACCGGTTTTCCCGGTAATCCGTATTTGCA (site AGGAAGACTTG) | 0
16 | AAGAAGACATGGACCGGTTTTCCCGGTAATCCGTATTTGAA (site AAGAAGACTTT) | 2.39
17 | AAGAAGACATGGACCGGTTTTCCCGGTAATCCGTATTTGAA (site AGGAAGACTTG) | 0
18 | AAGAAGTCATGGACCGGTTTTCCCGGTAATCCGTATTTGTA (site AAGAAGTCTTA) | 3.3
19 | AAGAGGACATGGACCGGTTTTCCCGGTAATCCGTATTTGCA (site AAGAGGACTTG) | 2.65
20 | AAGAGGACATGGACCGGTTTTCCCGGTAATCCGTATTTGCA (site AGGAAGACTTG) | 1.62
21 | AAGCAAGCATGGACCGGTTTTCCCGGTAATCCGTATTTGGG (site AAGCAAGCTCC) | 0.623
22 | AAGCAAGCATGGACCGGTTTTCCCGGTAATCCGTATTTGGG (site AAGCACGCTCC) | 0.0526
23 | AAGCAAGCATGGACCGGTTTTCCCGGTAATCCGTATTTGGG (site AAGCAGGCTCC) | 0
24 | AAGCAAGCATGGACCGGTTTTCCCGGTAATCCGTATTTGGG (site AAGCATGCTCC) | 0.0463

Row | Sequence | recombinant UMI read abundance (log10)
25 | AAGCACACATGGACCGGTTTTCCCGGTAATCCGTATTTGGG (site AAGCACACTCC) | 0.242
26 | AAGCACACATGGACCGGTTTTCCCGGTAATCCGTATTTGGG (site AAGCACCCTCC) | 0.0138
27 | AAGCACACATGGACCGGTTTTCCCGGTAATCCGTATTTGGG (site AAGCACGCTCC) | 0.0056
28 | AAGCACACATGGACCGGTTTTCCCGGTAATCCGTATTTGGG (site AAGCACTCTCC) | 0.222
29 | AAGCACTCATGGACCGGTTTTCCCGGTAATCCGTATTTGGG (site AAGCACACTCC) | 0.0075
30 | AAGCACTCATGGACCGGTTTTCCCGGTAATCCGTATTTGGG (site AAGCACCCTCC) | 0.00615
31 | AAGCACTCATGGACCGGTTTTCCCGGTAATCCGTATTTGGG (site AAGCACGCTCC) | 0.0931
32 | AAGCACTCATGGACCGGTTTTCCCGGTAATCCGTATTTGGG (site AAGCACTCTCC) | 1.57
33 | AAGCCTGCATGGACCGGTTTTCCCGGTAATCCGTATTTGTA (site AAGCCTGCTTA) | 0.811
34 | AAGCGCGCATGGACCGGTTTTCCCGGTAATCCGTATTTGGG (site AAGCACGCTCC) | 0.0182
35 | AAGCGCGCATGGACCGGTTTTCCCGGTAATCCGTATTTGGG (site AAGCCCGCTCC) | 0.0103
36 | AAGCGCGCATGGACCGGTTTTCCCGGTAATCCGTATTTGGG (site AAGCGCGCTCC) | 0.214
37 | AAGCGCGCATGGACCGGTTTTCCCGGTAATCCGTATTTGGG (site AAGCTCGCTCC) | 0.0124
38 | AAGCGTCCATGGACCGGTTTTCCCGGTAATCCGTATTTGAT (site AAACGTCCTAT) | 0.245
39 | AAGCGTCCATGGACCGGTTTTCCCGGTAATCCGTATTTGAT (site AACCGTCCTAT) | 0.281
40 | AAGCGTCCATGGACCGGTTTTCCCGGTAATCCGTATTTGAT (site AAGCGTCCTAT) | 1.17
41 | AAGCGTCCATGGACCGGTTTTCCCGGTAATCCGTATTTGAT (site AATCGTCCTAT) | 0.017
42 | AAGCTAGCATGGACCGGTTTTCCCGGTAATCCGTATTTGAA (site AAGCTAGCTTT) | 2.09
43 | AAGCTAGCATGGACCGGTTTTCCCGGTAATCCGTATTTGAA (site CAGCTAGCTTT) | 1.37
44 | AAGCTAGCATGGACCGGTTTTCCCGGTAATCCGTATTTGAA (site GAGCTAGCTTT) | 0.00246
45 | AAGCTAGCATGGACCGGTTTTCCCGGTAATCCGTATTTGAA (site TAGCTAGCTTT) | 1.48
46 | AAGCTCGCATGGACCGGTTTTCCCGGTAATCCGTATTTGGG (site AAGCACGCTCC) | 0.0201
47 | AAGCTCGCATGGACCGGTTTTCCCGGTAATCCGTATTTGGG (site AAGCCCGCTCC) | 0.0313
48 | AAGCTCGCATGGACCGGTTTTCCCGGTAATCCGTATTTGGG (site AAGCGCGCTCC) | 0.0107

Row | Sequence | recombinant UMI read abundance (log10)
49 | AAGCTCGCATGGACCGGTTTTCCCGGTAATCCGTATTTGGG (site AAGCTCGCTCC) | 0.0176
50 | AAGGATCCATGGACCGGTTTTCCCGGTAATCCGTATTTGTT (site AAGGATCCTAA) | 1.19
51 | AAGGGCTCATGGACCGGTTTTCCCGGTAATCCGTATTTGGA (site AAGGGCTCTTC) | 1.96
52 | AAGGTAACATGGACCGGTTTTCCCGGTAATCCGTATTTGCT (site AAAGTAACTAG) | 2.59
53 | AAGGTAACATGGACCGGTTTTCCCGGTAATCCGTATTTGCT (site AACGTAACTAG) | 0.731
54 | AAGGTAACATGGACCGGTTTTCCCGGTAATCCGTATTTGCT (site AAGGTAACTAG) | 2.73
55 | AAGGTAACATGGACCGGTTTTCCCGGTAATCCGTATTTGCT (site AATGTAACTAG) | 1.43
56 | AAGGTTACATGGACCGGTTTTCCCGGTAATCCGTATTTGAA (site AAGGTTACTTT) | 2.53
57 | AAGTAGGCATGGACCGGTTTTCCCGGTAATCCGTATTTGCA (site AAGTAGGCTTG) | 2.63
58 | AAGTCGTCATGGACCGGTTTTCCCGGTAATCCGTATTTGCG (site AAGTCGTCTCG) | 1.19
59 | AAGTGAGCATGGACCGGTTTTCCCGGTAATCCGTATTTGGA (site AAGTGAGCTTC) | 0.812
60 | AATAATGCATGGACCGGTTTTCCCGGTAATCCGTATTTGGA (site AATAATGCTTC) | 1.06
61 | AATAATGCATGGACCGGTTTTCCCGGTAATCCGTATTTGGA (site AATCATGCTTC) | 0.217
62 | AATAATGCATGGACCGGTTTTCCCGGTAATCCGTATTTGGA (site AATGATGCTTC) | 0.361
63 | AATAATGCATGGACCGGTTTTCCCGGTAATCCGTATTTGGA (site AATTATGCTTC) | 0.707
64 | AATACTTCATGGACCGGTTTTCCCGGTAATCCGTATTTGGA (site AATACTTCTTC) | 1.81
65 | AATAGACCATGGACCGGTTTTCCCGGTAATCCGTATTTGAT (site AATAGACCTAT) | 0
66 | AATAGTACATGGACCGGTTTTCCCGGTAATCCGTATTTGCG (site AATAGTACTCG) | 0.989
67 | AATCAACCATGGACCGGTTTTCCCGGTAATCCGTATTTGGT (site AATCAACCTAC) | 0.00613
68 | AATCAATCATGGACCGGTTTTCCCGGTAATCCGTATTTGGC (site AATCAATCTGC) | 2.07
69 | AATCATTCATGGACCGGTTTTCCCGGTAATCCGTATTTGCT (site AATCATTCTAG) | 2.27
70 | AATCCTCCATGGACCGGTTTTCCCGGTAATCCGTATTTGGA (site AATCCTCCTTC) | 0
71 | AATCGTCCATGGACCGGTTTTCCCGGTAATCCGTATTTGAT (site AAACGTCCTAT) | 0.00356
72 | AATCGTCCATGGACCGGTTTTCCCGGTAATCCGTATTTGAT (site AACCGTCCTAT) | 0.0167
